Experiments:
[1] = biological target: Kappa-type opioid receptor (Homo sapiens, UniProt P41145); assay: GPCRScan assay: inhibition of KOR; design: radioligand conc. used [nm] 0.6 – 1.2, parental cells stable HEK
[2] = biological target: Tyrosine-protein kinase ABL2 (Homo sapiens) (UniProt P42684)
[3] = biological target: RAC-gamma serine/threonine-protein kinase (Homo sapiens) (UniProt Q9Y243)
[4] = biological target: 5'-AMP-activated protein kinase catalytic subunit alpha-1 (Homo sapiens) (UniProt Q13131)
[5] = biological target: Serine/threonine-protein kinase Chk2 (Homo sapiens) (UniProt O96017)
[6] = biological target: Casein kinase I isoform alpha-like (Homo sapiens) (UniProt Q8N752)
[7] = biological target: Casein kinase I isoform gamma-2 (Homo sapiens) (UniProt P78368)
[8] = biological target: Dual specificity tyrosine-phosphorylation-regulated kinase 1A (Homo sapiens) (UniProt Q13627)
[9] = biological target: Dual specificity tyrosine-phosphorylation-regulated kinase 1B (Homo sapiens) (UniProt Q9Y463)
[10] = biological target: Ephrin type-B receptor 3 (Homo sapiens) (UniProt P54753)
[11] = biological target: Ephrin type-B receptor 6 (Homo sapiens) (UniProt O15197)
[12] = biological target: Tyrosine-protein kinase Fer (Homo sapiens) (UniProt P16591)
[13] = biological target: Fibroblast growth factor receptor 2 (Homo sapiens) (UniProt P21802)
[14] = tested on: Receptor-type tyrosine-protein kinase FLT3 (Homo sapiens), P36888 [D835Y]
[15] = tested on: Receptor-type tyrosine-protein kinase FLT3 (Homo sapiens), P36888 [K663Q]
[16] = tested on: eIF-2-alpha kinase GCN2 (Homo sapiens), Q9P2K8 [S808G]
[17] = biological target: Rhodopsin kinase GRK1 (Homo sapiens) (UniProt Q15835)
[18] = biological target: Beta-adrenergic receptor kinase 1 (Homo sapiens) (UniProt P25098)
[19] = biological target: Glycogen synthase kinase-3 beta (Homo sapiens) (UniProt P49841)
[20] = biological target: Serine/threonine-protein kinase haspin (Homo sapiens) (UniProt Q8TF76)
[21] = biological target: Homeodomain-interacting protein kinase 3 (Homo sapiens) (UniProt Q9H422)
[22] = biological target: Interleukin-1 receptor-associated kinase 3 (Homo sapiens) (UniProt Q9Y616)
[23] = biological target: Tyrosine-protein kinase JAK1 (Homo sapiens) (UniProt P23458)
Chain of Tyrosine-protein kinase JAK1 (Homo sapiens) (P23458 whole entry): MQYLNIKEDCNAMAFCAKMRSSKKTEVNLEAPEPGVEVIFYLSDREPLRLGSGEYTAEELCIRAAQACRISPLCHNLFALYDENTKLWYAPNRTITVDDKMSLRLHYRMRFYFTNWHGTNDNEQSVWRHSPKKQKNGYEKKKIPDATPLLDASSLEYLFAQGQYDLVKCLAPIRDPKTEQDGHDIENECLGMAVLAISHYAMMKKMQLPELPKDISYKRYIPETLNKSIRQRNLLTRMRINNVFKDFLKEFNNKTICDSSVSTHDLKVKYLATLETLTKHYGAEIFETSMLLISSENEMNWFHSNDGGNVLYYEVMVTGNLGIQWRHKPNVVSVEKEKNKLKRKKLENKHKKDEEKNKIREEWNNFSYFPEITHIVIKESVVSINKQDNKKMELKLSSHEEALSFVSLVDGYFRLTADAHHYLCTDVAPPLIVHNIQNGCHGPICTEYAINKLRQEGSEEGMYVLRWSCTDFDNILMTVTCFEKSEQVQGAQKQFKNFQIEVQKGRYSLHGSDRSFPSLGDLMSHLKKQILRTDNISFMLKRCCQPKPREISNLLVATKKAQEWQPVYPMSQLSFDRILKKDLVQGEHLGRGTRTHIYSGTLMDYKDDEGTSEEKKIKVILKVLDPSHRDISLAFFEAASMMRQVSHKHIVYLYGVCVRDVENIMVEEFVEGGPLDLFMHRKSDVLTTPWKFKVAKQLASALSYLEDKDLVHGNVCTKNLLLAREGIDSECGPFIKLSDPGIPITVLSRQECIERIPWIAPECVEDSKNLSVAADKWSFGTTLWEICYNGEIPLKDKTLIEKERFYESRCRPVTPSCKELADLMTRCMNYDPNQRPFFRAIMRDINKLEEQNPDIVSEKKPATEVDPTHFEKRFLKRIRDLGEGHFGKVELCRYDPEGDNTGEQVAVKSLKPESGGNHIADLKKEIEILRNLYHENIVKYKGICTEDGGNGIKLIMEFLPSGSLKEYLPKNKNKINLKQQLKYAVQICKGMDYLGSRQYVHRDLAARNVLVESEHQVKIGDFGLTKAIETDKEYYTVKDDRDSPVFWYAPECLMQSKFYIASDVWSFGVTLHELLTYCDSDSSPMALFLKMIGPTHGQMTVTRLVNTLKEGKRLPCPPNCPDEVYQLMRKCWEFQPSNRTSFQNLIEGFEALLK

[24] = tested on: Mast/stem cell growth factor receptor Kit (Homo sapiens), P10721 [A829P]
[25] = biological target: LIM domain kinase 2 (Homo sapiens) (UniProt P53671)
[26] = biological target: Mitogen-activated protein kinase kinase kinase kinase 3 (Homo sapiens) (UniProt Q8IVH8)
[27] = tested on: Hepatocyte growth factor receptor (Homo sapiens), P08581 [M1250T]
[28] = biological target: Serine/threonine-protein kinase 3 (Homo sapiens) (UniProt Q13188)
[29] = biological target: Serine/threonine-protein kinase mTOR (Homo sapiens) (UniProt P42345)
[30] = biological target: Serine/threonine-protein kinase Nek4 (Homo sapiens) (UniProt P51957)
Chain of Serine/threonine-protein kinase Nek4 (Homo sapiens) (P51957 whole entry, looked up): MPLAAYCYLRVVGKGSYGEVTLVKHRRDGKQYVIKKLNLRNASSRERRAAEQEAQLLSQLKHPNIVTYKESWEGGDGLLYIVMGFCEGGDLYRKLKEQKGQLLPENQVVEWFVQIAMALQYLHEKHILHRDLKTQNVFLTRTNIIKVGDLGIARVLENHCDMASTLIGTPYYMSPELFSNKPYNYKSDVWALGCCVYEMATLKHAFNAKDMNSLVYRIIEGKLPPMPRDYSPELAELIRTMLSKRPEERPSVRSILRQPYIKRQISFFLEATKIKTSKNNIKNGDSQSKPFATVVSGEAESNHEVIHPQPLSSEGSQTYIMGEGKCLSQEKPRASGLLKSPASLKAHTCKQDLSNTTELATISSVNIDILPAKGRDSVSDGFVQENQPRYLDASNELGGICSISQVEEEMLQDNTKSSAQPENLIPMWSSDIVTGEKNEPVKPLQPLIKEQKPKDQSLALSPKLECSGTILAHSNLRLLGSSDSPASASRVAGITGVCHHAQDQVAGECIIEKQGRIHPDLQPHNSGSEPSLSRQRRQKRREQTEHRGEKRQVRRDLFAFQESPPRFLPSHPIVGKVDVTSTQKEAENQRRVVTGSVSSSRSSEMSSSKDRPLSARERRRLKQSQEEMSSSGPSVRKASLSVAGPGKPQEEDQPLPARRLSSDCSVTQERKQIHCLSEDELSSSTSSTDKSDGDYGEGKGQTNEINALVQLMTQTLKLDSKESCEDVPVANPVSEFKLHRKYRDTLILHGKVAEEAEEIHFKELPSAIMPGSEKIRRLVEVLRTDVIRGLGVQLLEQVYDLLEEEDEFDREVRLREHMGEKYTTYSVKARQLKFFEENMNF

[31] = biological target: 3-phosphoinositide-dependent protein kinase 1 (Homo sapiens) (UniProt O15530)
[32] = tested on: Phosphatidylinositol 4,5-bisphosphate 3-kinase catalytic subunit alpha isoform (Homo sapiens), P42336 [M1043I]
Chain of Phosphatidylinositol 4,5-bisphosphate 3-kinase catalytic subunit alpha isoform (Homo sapiens), P42336 [M1043I] (P42336 whole entry M1043I, canonical isoform): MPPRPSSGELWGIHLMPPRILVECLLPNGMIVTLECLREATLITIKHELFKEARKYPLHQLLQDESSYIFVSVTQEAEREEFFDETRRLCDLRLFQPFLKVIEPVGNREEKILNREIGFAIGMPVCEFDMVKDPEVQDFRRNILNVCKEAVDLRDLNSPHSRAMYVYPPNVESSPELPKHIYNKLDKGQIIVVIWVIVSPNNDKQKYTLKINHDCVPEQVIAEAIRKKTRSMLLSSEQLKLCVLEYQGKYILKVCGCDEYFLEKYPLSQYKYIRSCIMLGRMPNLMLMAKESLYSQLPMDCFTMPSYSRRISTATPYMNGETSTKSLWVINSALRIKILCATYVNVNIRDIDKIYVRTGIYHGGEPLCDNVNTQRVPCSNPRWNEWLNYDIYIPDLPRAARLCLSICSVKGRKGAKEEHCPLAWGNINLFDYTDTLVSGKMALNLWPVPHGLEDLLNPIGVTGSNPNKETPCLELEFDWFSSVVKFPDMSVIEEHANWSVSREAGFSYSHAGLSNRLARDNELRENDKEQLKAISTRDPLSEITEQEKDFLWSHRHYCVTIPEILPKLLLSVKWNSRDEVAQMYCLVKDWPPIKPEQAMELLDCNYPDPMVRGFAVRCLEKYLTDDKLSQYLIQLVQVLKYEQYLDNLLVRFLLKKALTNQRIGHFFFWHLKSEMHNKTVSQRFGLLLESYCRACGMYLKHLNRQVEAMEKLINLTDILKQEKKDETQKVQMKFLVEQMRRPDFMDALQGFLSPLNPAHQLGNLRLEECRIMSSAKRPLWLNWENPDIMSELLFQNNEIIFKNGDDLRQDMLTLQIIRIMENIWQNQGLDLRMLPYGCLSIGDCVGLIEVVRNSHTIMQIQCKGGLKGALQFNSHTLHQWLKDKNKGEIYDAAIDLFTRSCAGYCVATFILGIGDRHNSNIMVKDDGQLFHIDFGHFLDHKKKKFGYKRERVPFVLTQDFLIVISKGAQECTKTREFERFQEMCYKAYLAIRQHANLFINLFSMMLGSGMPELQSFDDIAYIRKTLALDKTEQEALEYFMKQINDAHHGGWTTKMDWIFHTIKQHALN

[33] = biological target: Protein kinase C delta type (Homo sapiens) (UniProt Q05655)
[34] = biological target: Serine/threonine-protein kinase D2 (Homo sapiens) (UniProt Q9BZL6)
[35] = biological target: Serine/threonine-protein kinase SIK3 (Homo sapiens) (UniProt Q9Y2K2)
[36] = tested on: Proto-oncogene tyrosine-protein kinase receptor Ret (Homo sapiens), P07949 [M918T]
[37] = biological target: Serine/threonine-protein kinase RIO2 (Homo sapiens) (UniProt Q9BVS4)
[38] = biological target: Serine/threonine-protein kinase RIO3 (Homo sapiens) (UniProt O14730)
[39] = biological target: Serine/threonine-protein kinase TAO1 (Homo sapiens) (UniProt Q7L7X3)
[40] = biological target: Dual specificity testis-specific protein kinase 1 (Homo sapiens) (UniProt Q15569)
[41] = biological target: Serine/threonine-protein kinase 32A (Homo sapiens) (UniProt Q8WU08)
[42] = biological target: Serine/threonine-protein kinase 32B (Homo sapiens) (UniProt Q9NY57)
[43] = biological target: 5-hydroxytryptamine receptor 7 (Homo sapiens) (UniProt P34969); settings: Compound concentration 10.0 uM
D(2) dopamine receptor = D(2) dopamine receptor (Homo sapiens, UniProt P14416); settings: Compound concentration 10.0 uM
[44] = biological target: Beta-2 adrenergic receptor (Homo sapiens) (UniProt P07550); settings: Compound concentration 10.0 uM
[45] = Compound concentration 1000.0 nM
[46] = Compound concentration 100.0 nM

Chain of Kappa-type opioid receptor (P41145 whole entry): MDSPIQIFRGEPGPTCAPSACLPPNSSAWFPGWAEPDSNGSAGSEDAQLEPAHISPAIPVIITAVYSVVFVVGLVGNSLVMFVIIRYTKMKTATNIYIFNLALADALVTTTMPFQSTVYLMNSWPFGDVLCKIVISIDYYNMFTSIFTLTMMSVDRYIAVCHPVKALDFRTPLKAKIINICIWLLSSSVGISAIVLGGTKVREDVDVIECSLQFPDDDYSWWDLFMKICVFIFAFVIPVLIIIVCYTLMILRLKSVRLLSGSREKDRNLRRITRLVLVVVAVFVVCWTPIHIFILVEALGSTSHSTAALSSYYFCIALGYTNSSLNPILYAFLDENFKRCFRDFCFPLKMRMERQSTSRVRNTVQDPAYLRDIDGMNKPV
Chain of RAC-gamma serine/threonine-protein kinase (Homo sapiens) (Q9Y243 whole entry): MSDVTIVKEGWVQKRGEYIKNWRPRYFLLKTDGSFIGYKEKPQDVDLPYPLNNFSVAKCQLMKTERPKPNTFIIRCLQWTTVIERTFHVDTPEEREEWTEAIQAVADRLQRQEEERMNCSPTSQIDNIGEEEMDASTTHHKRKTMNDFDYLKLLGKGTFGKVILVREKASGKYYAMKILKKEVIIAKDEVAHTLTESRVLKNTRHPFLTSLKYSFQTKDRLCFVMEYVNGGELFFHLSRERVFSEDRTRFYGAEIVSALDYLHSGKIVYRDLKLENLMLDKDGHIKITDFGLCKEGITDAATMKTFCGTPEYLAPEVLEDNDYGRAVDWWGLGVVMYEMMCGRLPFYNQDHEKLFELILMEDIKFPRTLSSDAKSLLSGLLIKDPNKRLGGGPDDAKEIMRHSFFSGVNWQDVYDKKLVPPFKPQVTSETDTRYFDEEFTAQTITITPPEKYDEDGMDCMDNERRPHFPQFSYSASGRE
Chain of Tyrosine-protein kinase ABL2 (Homo sapiens) (P42684 whole entry): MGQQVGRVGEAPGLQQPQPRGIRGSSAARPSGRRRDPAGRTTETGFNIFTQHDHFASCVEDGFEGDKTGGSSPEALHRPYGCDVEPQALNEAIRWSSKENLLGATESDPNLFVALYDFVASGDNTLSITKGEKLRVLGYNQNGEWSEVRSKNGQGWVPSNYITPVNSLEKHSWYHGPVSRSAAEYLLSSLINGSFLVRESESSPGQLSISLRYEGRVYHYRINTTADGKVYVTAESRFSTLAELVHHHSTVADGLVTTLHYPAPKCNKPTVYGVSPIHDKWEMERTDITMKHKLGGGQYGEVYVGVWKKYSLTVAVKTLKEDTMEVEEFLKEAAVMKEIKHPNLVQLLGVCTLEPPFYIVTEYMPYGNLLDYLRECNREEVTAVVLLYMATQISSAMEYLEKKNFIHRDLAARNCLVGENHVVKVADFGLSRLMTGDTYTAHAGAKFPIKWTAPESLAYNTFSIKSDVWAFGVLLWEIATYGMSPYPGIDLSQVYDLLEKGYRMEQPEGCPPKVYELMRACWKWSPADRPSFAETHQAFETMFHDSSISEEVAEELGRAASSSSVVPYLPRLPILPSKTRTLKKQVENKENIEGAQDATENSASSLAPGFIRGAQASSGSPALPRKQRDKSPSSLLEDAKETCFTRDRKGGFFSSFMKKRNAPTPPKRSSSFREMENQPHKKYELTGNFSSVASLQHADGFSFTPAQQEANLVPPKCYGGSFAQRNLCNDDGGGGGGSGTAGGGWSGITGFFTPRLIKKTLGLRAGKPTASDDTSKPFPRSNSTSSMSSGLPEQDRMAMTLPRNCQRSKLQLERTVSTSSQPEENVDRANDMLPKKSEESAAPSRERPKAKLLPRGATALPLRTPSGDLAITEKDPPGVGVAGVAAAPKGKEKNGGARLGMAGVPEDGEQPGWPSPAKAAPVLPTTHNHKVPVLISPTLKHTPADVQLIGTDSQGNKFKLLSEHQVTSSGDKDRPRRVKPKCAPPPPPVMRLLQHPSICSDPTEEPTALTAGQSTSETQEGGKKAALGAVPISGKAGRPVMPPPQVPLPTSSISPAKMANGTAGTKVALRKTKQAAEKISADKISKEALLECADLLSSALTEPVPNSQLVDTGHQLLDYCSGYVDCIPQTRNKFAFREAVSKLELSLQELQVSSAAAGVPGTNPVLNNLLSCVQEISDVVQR

Cc1cc(NC(=O)c2cccc(S(F)(F)(F)(F)F)c2)cc(-n2ccn3nc(-c4cccnc4)cc23)c1 [BAY-309]
Ki ([1]; read-out: Ki): 10000 nM | residual activity [2, 45]: 100% | residual activity [3, 45]: 100% | residual activity [4, 45]: 100% | residual activity [5, 45]: 100% | residual activity [6, 45]: 100% | residual activity [7, 45]: 95.4% | residual activity [8, 45]: 100% | residual activity [9, 45]: 61.2% | residual activity [10, 45]: 100% | residual activity [11, 45]: 100% | residual activity [12, 45]: 59.4% | residual activity [13, 45]: 81.7% | residual activity [14, 45]: 100% | residual activity [15, 45]: 100% | residual activity [16, 45]: 100% | residual activity [17, 45]: 50.4% | residual activity [18, 45]: 74.5% | residual activity [19, 45]: 85.4% | residual activity [20, 45]: 70.9% | residual activity [21, 45]: 88.8% | residual activity [22, 45]: 100% | residual activity [23, 45]: 100% | residual activity [24, 45]: 100% | residual activity [25, 45]: 95.3% | residual activity [26, 45]: 100% | residual activity [27, 45]: 83.2% | residual activity [28, 45]: 100% | residual activity [29, 45]: 99.2% | residual activity [30, 45]: 92.9% | residual activity [31, 45]: 92% | residual activity [32, 45]: 30.3% | residual activity [33, 45]: 95.8% | residual activity [34, 45]: 100% | residual activity [35, 45]: 100% | residual activity [36, 45]: 100% | residual activity [37, 45]: 49.7% | residual activity [38, 45]: 85.9% | residual activity [39, 45]: 100% | residual activity [40, 45]: 91.7% | residual activity [41, 45]: 100% | residual activity [42, 45]: 100% | inhibition [43]: 6.71% | inhibition (D(2) dopamine receptor): 62.1% | inhibition [44]: -7.8%

Cc1cc(C)c(-n2ccn3nc(-c4cccnc4)cc23)cc1NC(=O)c1cc(C#N)cc(S(F)(F)(F)(F)F)c1 [BAY-826]
Ki ([1]; read-out: Ki): 125 nM | Ki ([1]; read-out: pKi (converted)): 112 nM | residual activity [2, 46]: 67.8% | residual activity [3, 46]: 95.6% | residual activity [4, 46]: 77% | residual activity [5, 46]: 100% | residual activity [6, 46]: 88.4% | residual activity [7, 46]: 77.6% | residual activity [8, 46]: 82.8% | residual activity [9, 46]: 100% | residual activity [10, 46]: 100% | residual activity [11, 46]: 3% | residual activity [12, 46]: 100% | residual activity [13, 46]: 84.3% | residual activity [14, 46]: 91.4% | residual activity [15, 46]: 100% | residual activity [16, 46]: 100% | residual activity [17, 46]: 71.2% | residual activity [18, 46]: 91.8% | residual activity [19, 46]: 85.9% | residual activity [20, 46]: 64% | residual activity [21, 46]: 80.7% | residual activity [22, 46]: 75.2% | residual activity [23, 46]: 100% | residual activity [24, 46]: 50.9% | residual activity [25, 46]: 89% | residual activity [26, 46]: 89.6% | residual activity [27, 46]: 100% | residual activity [28, 46]: 85.4% | residual activity [29, 46]: 70.1% | residual activity [30, 46]: 90.2% | residual activity [31, 46]: 100% | residual activity [32, 46]: 100% | residual activity [33, 46]: 93.1% | residual activity [34, 46]: 100% | residual activity [35, 46]: 75.3% | residual activity [36, 46]: 77.1% | residual activity [37, 46]: 74.2% | residual activity [38, 46]: 100% | residual activity [39, 46]: 45.2% | residual activity [40, 46]: 85.1% | residual activity [41, 46]: 100% | residual activity [42, 46]: 94.3% | inhibition [43]: -3.4% | inhibition (D(2) dopamine receptor): 8.74% | inhibition [44]: 25.6%

— ChEMBL document CHEMBL4507270 (2021)
